RP-LC retention time data for 32 molecules are collected here from the METLIN SMRT retention time set (Domingo-Almenara et al. 2019).

A short description of the series: gradient 5% acetonitrile 3 min, to 50% in 2 min, to 85% in 15 min, held 3 min, 100 µL/min. The note with it: column: Zorbax Extend-C18 2.1 x 50 mm; eluents: water / acetonitrile, 0.1% formic acid. In outline: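 Data were gathered over 3 months by HPLC coupled to a quadrupole time-of-flight mass spectrometer, operated in positive and negative ionization mode. Mixtures of ~100 pure standards ran on a Zorbax Extend-C18 column (2.1 × 50 mm, 1.8 μm) at 100 μL/min, with water and acetonitrile each containing 0.1% formic acid and dead and dwell volumes of 40 μL and 900 μL. Retention time was read from adduct peaks picked by computer and checked manually.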
As for `Cc1cccc(NC(=O)CN2C(=O)C3CCCCN3c3ccc(S(=O)(=O)N4CCCCC4)cc32)c1` (configuration not stated), the RP-LC retention time is 1080 s.
For the molecule `COc1ccc(-c2nc3ncccn3c2Nc2cccc(Cl)c2C)cc1`, the RP-LC retention time is 845 s.
For the molecule `CN(C)c1nccnc1OC1CCN(C(=O)C2CCCCC2)C1` (configuration not stated), the RP-LC retention time was 765 s.
For the molecule `Cc1ccc(CNC(=O)c2nnc(-c3ccc(S(=O)(=O)N4CCC(C)CC4)cc3)o2)cc1`, the RP-LC retention time amounted to 1100 s.
The result for `CCn1cc(CN(Cc2c(C)nn(C)c2C)C(=O)C2CCN(c3cnn(C)c(=O)c3)C2)cn1` (configuration not stated) reads 603 s; that for `CCCCOc1ccc(S(=O)(=O)Nc2ccc(-c3cn4ccc(C)nc4n3)cc2)cc1`, 776 s; that for `COc1ccc(NC2=C(c3ccccc3)C(=O)N(Cc3ccccc3)C2=O)cc1`, 1140 s.
Take `O=C(Cn1nc(N2CCSCC2)c2ccccc2c1=O)Nc1ccccc1C(F)(F)F`: the RP-LC retention time was 979 s.
`CCNCc1ccc(-c2cc(Cl)ccc2Cl)o1` returned an RP-LC retention time of 686 s.
`CNC(=O)[C@H]1O[C@@H](n2cnc3c(NCc4cccc(I)c4)ncnc32)C(O)C1O` (some centres not stated) displayed an RP-LC retention time of 721 s.
For the molecule `O=C(C1CCCN(c2nc3cccnc3s2)C1)N1CCN(c2cccc(Cl)c2)CC1` (configuration not stated), the RP-LC retention time was found to be 1010 s.
For `O=C(c1ccccc1Br)N1CCN(Cc2nc(-c3ccccc3)cs2)CC1`, the RP-LC retention time was 773 s.
`Cc1cc(C)cc(C(=O)N2CCc3nc[nH]c3C2)c1`: the RP-LC retention time stood at 584 s.
Next, `O=C(CCC(=O)N1CCOc2ccccc21)Nc1c(F)c(F)c(F)c(F)c1F`: 912 s; `CCN1C(=O)COc2ccc(-c3nc(NC(C)=O)sc3C)cc21`: 759 s.
Next, `COc1ccc(N2C(=O)C3N=NN(c4cccc(OC)c4)C3C2=O)cc1` (configuration not stated): 905 s; `CCOC(=O)c1[nH]c(C)c(CN(Cc2ccco2)C(=O)Cc2ccc(F)cc2)c1C`: 1020 s.
As for `CCOC(=O)Cn1c(=N)n(CCN2CCOCC2)c2ccccc21`, the RP-LC retention time was 548 s.
Molecule `CCOC(=O)C1CCN(CC(O)COc2cc(C)cc(C)c2C)CC1` (configuration not stated) registered an RP-LC retention time of 597 s.
As for `CC(=O)N[C@@H]1CCN(Cc2ccccc2C(F)(F)F)C[C@@H]1CO`, the RP-LC retention time turned out to be 574 s.
Next, `COc1ccc(S(=O)(=O)N2CCC(c3nc(C(=O)N4CCOCC4)c(C)o3)CC2)cc1`: 752 s; `O=S(=O)(c1ccccc1Br)N1CCc2nc(-c3ccc(F)cc3)ncc2C1`: 1130 s.
Next, `CCOc1ccc(CNC(=O)C2CCN(S(=O)(=O)c3ccc4c(c3)CCCC(=O)N4)CC2)cc1`: 756 s; `O=c1ccn(-c2ccc(Cl)cc2)nc1-c1nc(-c2ccc(F)cc2)no1`: 929 s; `Cc1nnc(-c2cc(NC(=O)c3ccc(F)cc3Cl)c(C)s2)o1`: 865 s.
As to `O=c1c2cc(-c3ccc(F)cc3)nn2ccn1CC(O)c1ccc2c(c1)OCO2` (configuration not stated), the RP-LC retention time came to 864 s.
Take `CCN1c2cc(F)ccc2C(=O)NC12CCN(C(=O)c1ccc(OC)c(OC)c1)CC2`: the RP-LC retention time was 740 s.
Take `CN(Cc1ccco1)C(=O)c1ccc2ccnc(N3CCN(c4ccc(Cl)cc4)CC3)c2c1`: the RP-LC retention time is 917 s.
The result for `CCCn1cc(CCNS(=O)(=O)c2cccc(C(F)(F)F)c2)c2cccnc21` reads 904 s; that for `CCc1c(C(=O)O)nnn1-c1ccc(C)c(Cl)c1`, 809 s; that for `Cc1cccc(NC(=O)Cn2c(C)nc(C)c(C)c2=O)c1C`, 641 s.
As for `O=c1ccn(-c2cccc(F)c2)nc1-c1nc(-c2ccccc2Br)no1`, the RP-LC retention time was 905 s.
